Tests used:
[1] = target: T1, 5-HT transporter (Rattus norvegicus, UniProt P31652); assay: Inhibition of 5-HT uptake in rat brain synaptosomes; type: biochemical; settings: Table III, rat, 1 μM; for inhibition at 1 µM: read-out: Uptake 5-HT, % inhibition
T1 construct: synaptosomes of rat brain areas are freshly isolated; from tissue; host or cells: rat brain synaptosomes (P2 fraction) from marrow and pons

[2] = tested on: NA transporter; assay: Inhibition of noradrenaline uptake in rat brain synaptosomes; type: biochemical; settings: Table III

T1 sequence (P31652 whole entry): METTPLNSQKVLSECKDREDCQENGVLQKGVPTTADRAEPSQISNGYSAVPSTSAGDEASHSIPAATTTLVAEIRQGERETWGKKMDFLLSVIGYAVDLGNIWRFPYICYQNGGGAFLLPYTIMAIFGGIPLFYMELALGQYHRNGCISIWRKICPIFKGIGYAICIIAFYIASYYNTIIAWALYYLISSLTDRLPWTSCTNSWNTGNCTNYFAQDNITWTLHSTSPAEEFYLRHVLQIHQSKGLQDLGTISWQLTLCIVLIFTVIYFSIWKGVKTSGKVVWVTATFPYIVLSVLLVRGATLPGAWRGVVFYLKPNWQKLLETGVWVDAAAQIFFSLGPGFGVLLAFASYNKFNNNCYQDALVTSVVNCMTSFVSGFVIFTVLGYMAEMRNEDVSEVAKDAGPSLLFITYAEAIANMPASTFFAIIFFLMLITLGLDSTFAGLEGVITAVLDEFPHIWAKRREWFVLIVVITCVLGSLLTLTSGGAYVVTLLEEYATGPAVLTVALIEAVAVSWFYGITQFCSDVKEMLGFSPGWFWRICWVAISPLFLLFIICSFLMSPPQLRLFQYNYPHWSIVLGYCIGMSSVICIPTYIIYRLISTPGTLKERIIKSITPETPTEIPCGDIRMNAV

inhibition at 1 µM [1] [%] | SMILES | Uptake (NA), rat, 10 μM, % inhibition [2] [%] | Uptake 5-HT, rat, 1 μM, % inhibition [1] [%]
50 | CSCCC1NC2(CCN(C(=O)c3ccccn3)CC2)N(Cc2ccc(F)cc2)C1=O (centres unmarked) [Example 109, 1-(4-Fluorobenzyl)-3-(2-methylsulfanylethyl)-8-(pyridin-2-carbonyl)-1,4,8-triazaspiro[4,5]decan-2-one] | 32 | –
41 | CSCCC1NC2(CCN(C(=O)c3cccc(F)c3)CC2)N(C)C1=O (centres unmarked) [Example 121, 8-(3-Fluorobenzoyl)-1-methyl-3-(2-methylsulfanylethyl)-1,4,8-triazaspiro[4,5]decan-2-one] | 37 | –
44 | CCCCN1C(=O)C(CCSC)NC12CCN(C(=O)c1ccc(C#N)cc1)CC2 (centres unmarked) [Example 125, 4-[1-Butyl-3-(2-methylsulfanylethyl)-2-oxo-1,4,8-triazaspiro[4,5]decan-8-carbonyl]benzonitrile] | 36 | –
43 | Cc1ccc(C(=O)N2CCC3(CC2)NC(Cc2ccccc2)C(=O)N3C)cc1F (centres unmarked) [Example 148, 3-Benzyl-8-(3-fluoro-4-methylbenzoyl)-1-methyl-1,4,8-triazaspiro[4,5]decan-2-one] | 32 | –
51 | C#CCN1C(=O)C(Cc2ccccc2)NC12CCN(C(=O)c1c(F)cccc1Cl)CC2 (centres unmarked) [Example 210, 3-Benzyl-8-(2-chloro-6-fluorobenzoyl)-1-prop-2-ynyl-1,4,8-triazaspiro[4,5]decan-2-one] | 31 | –
51 | N#Cc1cccc(CN2C(=O)CNC23CCN(C(=O)c2cc(C(F)(F)F)cc(C(F)(F)F)c2)CC3)c1 [Example 273, 3-[8-(3,5-Bis-trifluoromethylbenzoyl)-2-oxo-1,4,8-triazaspiro[4,5]dec-1-ylmethyl]benzonitrile] | 38 | –
95 | CCOC(=O)CN1C(=O)C(Cc2ccccc2)NC12CCN(C(=O)c1ccc(S(N)(=O)=O)cc1)CC2 (centres unmarked) [Example 276, Ethyl [3-benzyl-2-oxo-8-(4-sulfamoylbenzoyl)-1,4,8-triazaspiro[4,5]dec-1-yl]acetate] | 46 | –

Second part, the molecule before the results:

SMILES | inhibition at 1 µM [1] [%] | Uptake (NA), rat, 10 μM, % inhibition [2] [%] | Uptake 5-HT, rat, 1 μM, % inhibition [1] [%]
COCC(=O)N1CCC2(CC1)NC(CCSC)C(=O)N2Cc1cccc(C#N)c1 (centres unmarked) [Example 112, 3-[8-(2-Methoxyacetyl)-3-(2-methylsulfanylethyl)-2-oxo-1,4,8-triazaspiro[4,5]dec-1-ylmethyl]benzonitrile] | 43 | 42 | –
CC(=O)OC(C(=O)N1CCC2(CC1)NC(Cc1ccccc1)C(=O)N2C)c1ccccc1 (centres unmarked) [Example 113, Ethyl 2-(3-benzyl-1-methyl-2-oxo-1,4,8-triazaspiro[4,5]dec-8-yl)-2-oxo-1-phenylacetate] | – | 46 | 35
Cc1onc(-c2c(F)cccc2Cl)c1C(=O)N1CCC2(CC1)NC(=O)C(Cc1ccccc1)N2 (centres unmarked) [Example 115, 3-Benzyl-8-[3-(2-chloro-6-fluorophenyl)-5-methylisoxazole-4-carbonyl]-1,4,8-triazaspiro[4,5]decan-2-one] | 30 | 34 | –
CC(C)C1NC2(CCN(C(=O)c3c(F)cccc3Cl)CC2)NC1=O (centres unmarked) [Example 116, 8-(2-Chloro-6-fluorobenzoyl)-3-isopropyl-1,4,8-triazaspiro[4,5]decan-2-one] | 37 | 34 | –
O=C1NC2(CCN(C(=O)c3ccc4ccccc4c3)CC2)NC1Cc1ccccc1 (centres unmarked) [Example 122, 3-Benzyl-8-(naphthalin-2-carbonyl)-1,4,8-triazaspiro[4,5]decan-2-one] | 34 | 38 | –
COc1cc(C(=O)N2CCC3(CC2)NCC(=O)N3Cc2ccccc2F)cc(OC)c1OC [Example 271, 1-(2-Fluorobenzyl)-8-(3,4,5-trimethoxybenzoyl)-1,4,8-triazaspiro[4,5]decan-2-one] | 44 | 31 | –

Source: patent publication US7951815B2, “Substituted 1,4,8-triazaspiro [4,5]decan-2-one compounds” (Gruenenthal GmbH, priority 2004, dated 2011)
